Measured values taken from ChEMBL document CHEMBL1145690, “Antimalarial activity of tropical Meliaceae extracts and gedunin derivatives” (J Nat Prod, 1997).
Converted amounts (≈) assume the structure as drawn. The source made the active and inactive calls. No cut-off for these calls is given here.

Key:
[1] = system: KB; test: Cytotoxicity against human KB cells assessed as viability at 20000 ng/ml; type: functional; conditions: read-out: Activity
[2] = system: Plasmodium falciparum; test: Antimalarial activity against Plasmodium falciparum D6 by [3H]hypoxanthine uptake; type: functional, organism-based
[3] = system: Plasmodium falciparum; test: Antimalarial activity against Plasmodium falciparum W2 by [3H]hypoxanthine uptake; type: functional, organism-based
[4] = system: Plasmodium falciparum; test: Antimalarial activity against Plasmodium falciparum D6 by [3H]hypoxanthine uptake relative to gedunin; type: functional
[5] = system: KB; test: Cytotoxicity against human KB cells; type: functional, cell-based
[6] = system: Plasmodium falciparum; test: Antimalarial activity against Plasmodium falciparum; type: functional, organism-based
[7] = system: Plasmodium falciparum; test: Antimalarial activity against Plasmodium falciparum FCR3TC by radioisotope micro dilution assay; type: functional, organism-based
[8] = system: Plasmodium falciparum; test: Antimalarial activity against Plasmodium falciparum at 50000 ng/ml; type: functional, organism-based

Structure (SMILES) | viability at 20 µg/mL [1] | IC50 [2] | IC50 [3] | Activity [4] | IC50 [5] | IC50 [6] | IC50 [7] | Activity [8]
CC(=O)O[C@@H]1C[C@H]2C(C)(C)C(=O)C=C[C@]2(C)[C@H]2CC[C@@]3(C)[C@H](c4coc(C(C)=O)c4)OC(=O)[C@H]4O[C@]43[C@@]21C | 38% | 0.832 µg/mL (≈ 1.59 µM) | 0.156 µg/mL (≈ 0.297 µM) | 4.69% | 10.9 µg/mL (≈ 20.8 µM) | – | – | –
CC(=O)O[C@@H]1C[C@H]2C(C)(C)C(=O)C=C[C@]2(C)[C@H]2CC[C@@]3(C)[C@H](c4ccoc4C(C)=O)OC(=O)[C@H]4O[C@]43[C@@]21C | 31% | 0.133 µg/mL (≈ 0.254 µM) | 0.039 µg/mL (≈ 0.0743 µM) | 29.38% | 9.4 µg/mL (≈ 17.9 µM) | – | – | –
CC(=O)O[C@@H]1C[C@H]2C(C)(C)C(=O)[C@@H]3O[C@@H]3[C@]2(C)[C@H]2CC[C@@]3(C)[C@H](c4ccoc4)OC(=O)[C@H]4O[C@]43[C@@]21C | 81% | 2.58 µg/mL (≈ 5.17 µM) | 0.98 µg/mL (≈ 1.97 µM) | 0.93% | – | – | – | –
C[C@@H]1CC[C@H]2[C@@H](C)C(=O)O[C@@H]3O[C@@]4(C)CC[C@@H]1[C@]32OO4 [ARTEMISININ] | – | 0.0018 µg/mL (≈ 0.00638 µM) | 0.0005 µg/mL (≈ 0.00177 µM) | 2170% | > 20 µg/mL | – | – | –
CCN(CC)CCCC(C)Nc1ccnc2cc(Cl)ccc12 (stereo unspecified) [CHLOROQUINE] | – | – | – | 3000% | 17.4 µg/mL (≈ 54.4 µM) | – | – | –
CC1(C)C(=O)C=C[C@]2(C)[C@H]3CC[C@@]4(C)[C@H](c5ccoc5)OC(=O)[C@H]5O[C@]54[C@]3(C)C(=O)C[C@@H]12 [DEACETOXY-7-OXOGEDUNIN] | 99% | > 10 µg/mL | > 10 µg/mL | <0.39% | – | – | – | –
CC1(C)C(=O)C=C[C@]2(C)[C@H]3CC[C@@]4(C)[C@H](c5ccoc5)OC(=O)[C@H]5O[C@]54[C@]3(C)[C@H](O)C[C@@H]12 [DEACETYLGEDUNIN] | 39% | 2.61 µg/mL (≈ 5.92 µM) | 1.28 µg/mL (≈ 2.91 µM) | 1.5% | – | – | – | –
CC(=O)O[C@@H]1C[C@H]2C(C)(C)C(=O)CC[C@]2(C)[C@H]2CC[C@@]3(C)[C@H](c4ccoc4)OC(=O)[C@H]4O[C@]43[C@@]21C [DIHYDROGEDUNIN] | 71% | > 10 µg/mL | 0.84 µg/mL (≈ 1.73 µM) | <0.39% | – | 2.63 µg/mL (≈ 5.43 µM) | – | –
CC(=O)O[C@@H]1C[C@H]2C(C)(C)C(=O)C=C[C@]2(C)[C@H]2CC[C@@]3(C)[C@H](c4ccoc4)OC(=O)[C@H]4O[C@]43[C@@]21C [GEDUNIN] | 32% | 0.039 µg/mL (≈ 0.0808 µM) | 0.02 µg/mL (≈ 0.0414 µM) | – | 2.3 µg/mL (≈ 4.77 µM) | 0.72 µg/mL (≈ 1.49 µM) | 0.8 µg/mL (≈ 1.66 µM) | –
CC(=O)O[C@@H]1C[C@H]2C(C)(C)C(=O)CC[C@]2(C)[C@H]2CC[C@@]3(C)[C@H](C4CCOC4)OC(=O)[C@H]4O[C@]43[C@@]21C (stereo partly specified) [HEXAHYDROGEDUNIN] | 99% | 10 µg/mL (≈ 20.5 µM) | 2.13 µg/mL (≈ 4.36 µM) | 0.39% | – | – | – | –
CCOC(=O)[C@H]1[C@@H](OC(C)=O)[C@@H]2[C@@]3(C)C=CC(=O)[C@@](C)(C(=O)OC)C3=CC(=O)[C@@]2(C)[C@@]23O[C@@H]2C[C@@H](c2ccoc2)[C@]13C [HIRITIN] | 4.9% | 0.173 µg/mL (≈ 0.298 µM) | 0.096 µg/mL (≈ 0.165 µM) | 22.6% | 0.5 µg/mL (≈ 0.861 µM) | – | – | –
CC1(C)O[C@H]2CC(=O)OC[C@]23[C@H]2CC[C@@]4(C)[C@H](c5ccoc5)OC(=O)[C@H]5O[C@]54[C@]2(C)C(=O)C[C@@H]13 [LIMONIN] | – | – | – | – | – | – | > 100 µg/mL | inactive
OC(c1cc(C(F)(F)F)nc2c(C(F)(F)F)cccc12)C1CCCCN1 (stereo unspecified) [MEFLOQUINE] | – | 0.0075 µg/mL (≈ 0.0198 µM) | 0.0014 µg/mL (≈ 0.0037 µM) | 521% | 3.5 µg/mL (≈ 9.25 µM) | – | – | –
COC(=O)C[C@H]1[C@]2(C)C3=C(C)[C@H](c4ccoc4)C[C@H]3O[C@@H]2[C@@H]2OC(=O)[C@]3(C)C=CC(=O)[C@@]1(C)[C@@H]23 [NIMBOLIDE] | – | – | – | – | – | 1.74 µg/mL (≈ 3.73 µM) | – | –
C=C[C@H]1CN2CC[C@H]1C[C@H]2[C@H](O)c1ccnc2ccc(OC)cc12 [QUININE] | – | – | 0.0349 µg/mL (≈ 0.108 µM) | 264% | > 20 µg/mL | – | – | –
CC(=O)O[C@@H]1C[C@H]2C(C)(C)C(=O)C=C[C@]2(C)[C@H]2CC[C@@]3(C)[C@H](C4CCOC4)OC(=O)[C@H]4O[C@]43[C@@]21C (stereo partly specified) [TETRAHYDROGEDUNIN] | 81% | 2.5 µg/mL (≈ 5.14 µM) | 0.9 µg/mL (≈ 1.85 µM) | 1.56% | – | – | – | –
CC(=O)O[C@@H]1C[C@H]2C(C)(C)[C@@H](O)CC[C@]2(C)[C@H]2CC[C@@]3(C)[C@H](c4ccoc4)OC(=O)[C@H]4O[C@]43[C@@]21C [beta-DIHYDROGEDUNOL] | 69% | 4.21 µg/mL (≈ 8.65 µM) | 2.44 µg/mL (≈ 5.01 µM) | 0.93% | – | – | – | –
